Assays:
[1] = system: foxtail, giant; experiment: Test C preemergence; type: in vivo, Setaria faberi
Procedure, shortened: (§1)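 Soil-applied (pre) and foliar (post, 1–2 leaf, 2–10 cm) sprays; surfactant-containing non-phytotoxic solvent vehicle; loam/sand substrate. Readout: visual % control at 10 d, greenhouse, versus untreated.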

[2] = system: rice; experiment: Test D flooded paddy test; type: in vivo, Oryza sativa; details: 250 g ai/ha, applied to paddy water, visual rating after 13 to 14 days, scale 0 to 100 (0 no effect, 100 complete control)
Procedure, shortened: (§2)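 Rating scale 0–100 (0 no effect, 100 complete control), visual, versus controls. Readout at 13–14 days after in-water application to 2-leaf plants in pots flooded 3 cm deep.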

[3] = system: barnyardgrass; experiment: Test D flooded paddy test; type: in vivo, Echinochloa crus-galli; details: 250 g ai/ha, applied to paddy water, visual rating after 13 to 14 days, scale 0 to 100 (0 no effect, 100 complete control)
Procedure, shortened: as §2

[4] = system: kochia; experiment: Test C preemergence; type: in vivo, Bassia scoparia
Procedure, shortened: as §1

[5] = system: ducksalad; experiment: Test D flooded paddy test; type: in vivo, Heteranthera limosa; details: 250 g ai/ha, applied to paddy water, visual rating after 13 to 14 days, scale 0 to 100 (0 no effect, 100 complete control)
Procedure, shortened: as §2

[6] = system: pigweed, palmer; experiment: Test C preemergence; type: in vivo, Amaranthus palmeri
Procedure, shortened: as §1

[7] = system: wheat; experiment: Test C postemergence; type: in vivo, Triticum aestivum; details: 10 days, 0 to 100 scale (0 no effect, 100 complete control)
Procedure, shortened: as §1

[8] = system: blackgrass; experiment: Test C preemergence; type: in vivo, Alopecurus myosuroides
Procedure, shortened: as §1

[9] = system: corn; experiment: Test C preemergence; type: in vivo, Zea mays
Procedure, shortened: as §1

[10] = system: blackgrass; experiment: Test C postemergence; type: in vivo, Alopecurus myosuroides; details: 10 days, 0 to 100 scale (0 no effect, 100 complete control)
Procedure, shortened: as §1

[11] = system: ryegrass, Italian; experiment: Test C preemergence; type: in vivo, Lolium multiflorum
Procedure, shortened: as §1

[12] = system: oat, wild; experiment: Test C preemergence; type: in vivo, Avena fatua
Procedure, shortened: as §1

[13] = system: horseweed; experiment: Test C postemergence; type: in vivo, Erigeron canadensis; details: 10 days, 0 to 100 scale (0 no effect, 100 complete control)
Procedure, shortened: as §1

[14] = system: kochia; experiment: Test C postemergence; type: in vivo, Bassia scoparia; details: 10 days, 0 to 100 scale (0 no effect, 100 complete control)
Procedure, shortened: as §1

[15] = system: barnyardgrass; experiment: Test C postemergence; type: in vivo, Echinochloa crusgalli; details: 10 days, 0 to 100 scale (0 no effect, 100 complete control)
Procedure, shortened: as §1

[16] = system: ragweed; experiment: Test C postemergence; type: in vivo, Ambrosia artemisiifolia; details: 10 days, 0 to 100 scale (0 no effect, 100 complete control)
Procedure, shortened: as §1

[17] = system: pigweed, palmer; experiment: Test C postemergence; type: in vivo, Amaranthus palmeri; details: 10 days, 0 to 100 scale (0 no effect, 100 complete control)
Procedure, shortened: as §1

[18] = system: wheat; experiment: Test C preemergence; type: in vivo, Triticum aestivum
Procedure, shortened: as §1

[19] = system: soybean; experiment: Test C preemergence; type: in vivo, Glycine max
Procedure, shortened: as §1

[20] = system: ragweed; experiment: Test C preemergence; type: in vivo, Ambrosia artemisiifolia
Procedure, shortened: as §1

[21] = system: sedge, umbrella; experiment: Test D flooded paddy test; type: in vivo, Cyperus difformis; details: 250 g ai/ha, applied to paddy water, visual rating after 13 to 14 days, scale 0 to 100 (0 no effect, 100 complete control)
Procedure, shortened: as §2

[22] = system: ryegrass, Italian; experiment: Test C postemergence; type: in vivo, Lolium multiflorum; details: 10 days, 0 to 100 scale (0 no effect, 100 complete control)
Procedure, shortened: as §1

[23] = system: galium; experiment: Test C postemergence; type: in vivo, Galium aparine; details: 10 days, 0 to 100 scale (0 no effect, 100 complete control)
Procedure, shortened: as §1

[24] = system: oat, wild; experiment: Test C postemergence; type: in vivo, Avena fatua; details: 10 days, 0 to 100 scale (0 no effect, 100 complete control)
Procedure, shortened: as §1

[25] = system: foxtail, giant; experiment: Test C postemergence; type: in vivo, Setaria faberi; details: 10 days, 0 to 100 scale (0 no effect, 100 complete control)
Procedure, shortened: as §1

[26] = system: corn; experiment: Test C postemergence; type: in vivo, Zea mays; details: 10 days, 0 to 100 scale (0 no effect, 100 complete control)
Procedure, shortened: as §1

[27] = system: barnyardgrass; experiment: Test C preemergence; type: in vivo, Echinochloa crusgalli
Procedure, shortened: as §1

[28] = system: soybean; experiment: Test C postemergence; type: in vivo, Glycine max; details: 10 days, 0 to 100 scale (0 no effect, 100 complete control)
Procedure, shortened: as §1

[29] = 500 g ai/ha, preemergence, 0 to 100 scale (0 no effect, 100 complete control)
[30] = Preemergence, 125 g ai/ha, 0 to 100 scale, 0 no effect, 100 complete control

## Cc1ncn(-c2cc(C(=O)N3CC(C(F)(F)F)Oc4c(Cl)cccc43)ccn2)n1 (stereo not shown) [Compound 321]
[1]; [29]
  Foxtail, Giant plant response rating: 100
[1]; [30]
  Plant response rating, Foxtail, Giant: 100
[2]
  Plant response rating, Rice (Flood): 0
[3]
  Plant response rating, Barnyardgrass (Flood): 0
[4]; [29]
  Kochia plant response rating: 90
[4]; [30]
  Plant response rating, Kochia: 20
[5]
  Plant response rating, Ducksalad (Flood): 0
[6]; [29]
  Pigweed, Palmer plant response rating: 100
[6]; [30]
  Plant response rating, Pigweed, Palmer: 50
[7]; 500 g ai/ha, postemergence
  Plant response rating, Wheat: 80
[7]; Postemergence, 125 g ai/ha
  Plant response rating, Wheat: 20
[8]; [29]
  Blackgrass plant response rating: 90
[8]; [30]
  Plant response rating, Blackgrass: 80
[9]; [29]
  Corn plant response rating: 40
[9]; [30]
  Plant response rating, Corn: 10
[10]; 500 g ai/ha, postemergence
  Plant response rating, Blackgrass: 90
[10]; Postemergence, 125 g ai/ha
  Plant response rating, Blackgrass: 60
[11]; [29]
  Ryegrass, Italian plant response rating: 100
[11]; [30]
  Plant response rating, Ryegrass, Italian: 90
[12]; [29]
  Oat, Wild plant response rating: 80
[12]; [30]
  Plant response rating, Oat, Wild: 0
[13]; 500 g ai/ha, postemergence
  Plant response rating, Horseweed: 0
[13]; Postemergence, 125 g ai/ha
  Plant response rating, Horseweed: 0
[14]; 500 g ai/ha, postemergence
  Plant response rating, Kochia: 80
[14]; Postemergence, 125 g ai/ha
  Plant response rating, Kochia: 60
[15]; 500 g ai/ha, postemergence
  Plant response rating, Barnyardgrass: 90
[15]; Postemergence, 125 g ai/ha
  Plant response rating, Barnyardgrass: 20
[16]; 500 g ai/ha, postemergence
  Plant response rating, Ragweed: 40
[16]; Postemergence, 125 g ai/ha
  Plant response rating, Ragweed: 30
[17]; 500 g ai/ha, postemergence
  Plant response rating, Pigweed, Palmer: 60
[17]; Postemergence, 125 g ai/ha
  Plant response rating, Pigweed, Palmer: 10
[18]; [29]
  Wheat plant response rating: 30
[18]; [30]
  Plant response rating, Wheat: 10
[19]; [29]
  Soybean plant response rating: 40
[19]; [30]
  Plant response rating, Soybean: 0
[20]; [29]
  Ragweed plant response rating: 80
[20]; [30]
  Plant response rating, Ragweed: 0
[21]
  Plant response rating, Sedge, Umbrella (Flood): 0
[22]; 500 g ai/ha, postemergence
  Plant response rating, Ryegrass, Italian: 80
[22]; Postemergence, 125 g ai/ha
  Plant response rating, Ryegrass, Italian: 60
[23]; 500 g ai/ha, postemergence
  Plant response rating, Galium: 100
[23]; Postemergence, 125 g ai/ha
  Plant response rating, Galium: 100
[24]; 500 g ai/ha, postemergence
  Plant response rating, Oat, Wild: 90
[24]; Postemergence, 125 g ai/ha
  Plant response rating, Oat, Wild: 10
[25]; 500 g ai/ha, postemergence
  Plant response rating, Foxtail, Giant: 90
[25]; Postemergence, 125 g ai/ha
  Plant response rating, Foxtail, Giant: 70
[26]; 500 g ai/ha, postemergence
  Plant response rating, Corn: 90
[26]; Postemergence, 125 g ai/ha
  Plant response rating, Corn: 50
[27]; [29]
  Barnyardgrass plant response rating: 100
[27]; [30]
  Plant response rating, Barnyardgrass: 40
[28]; 500 g ai/ha, postemergence
  Plant response rating, Soybean: 100
[28]; Postemergence, 125 g ai/ha
  Plant response rating, Soybean: 90
